Test results published in patent EP2401611B1, “IMPROVED METHODS FOR IDENTIFICATION” (Cambridge Enterprise Limited, priority 2009, dated 2010).
Read-outs that look alike come from different tables or passages of the source. One block for each molecule: values may come before it.

Legend:
[1] = molecular target: sstr2 (Homo sapiens, UniProt P30874); test: [3H]-BN83250 equilibrium binding to THP-1 cells
Procedure: We have investigated the molecular interaction between BSCIs and the sstr2 receptor using conventional equilibrium binding studies employing labelled BSCI ligands.
For the analysis of binding, individual reactions were set up (in triplicate for each condition), with 1x10^6 THP-1 cells in Gey's Balanced Salt Solution, 10nM [^3H]-BN83250 (at 50 Ci/mmol) and various concentrations of (S)-3(2'2'-dimethylpropionoylamino)-tetrahydropyridin-2-one (10pM to 10µM). Excess (100µM) unlabelled BN83250 was used to determine the level of non-specific binding. After 2 hours at 4°C (conditions previously shown to achieve equilibrium binding, and which prevent uptake of the radioligand that would result in an over-estimate of binding) excess label was washed away by centrifugation (3 washes with 5ml of Gey's Balanced Salt Solution) and the bound radioactivity was determined by scintillation counting of the solubilised cell pellet.

[2] = tested on: THP-1 cells; test: MCP-1 induced THP-1 cell migration (Transwell) assay; type: cell-based, human; conditions: for "Classical" : "BSCI" potency ratio Human: Table 3, THP-1 migration ED50 versus Panc-2H4 insulin suppression ED50
Procedure: Leukocyte migration was measured using the 96-well format micro Transwell^RTM assay system from Neuroprobe (Gaithersburg, MD, USA). In principle, this assay consists of two chambers separated by a porous membrane. The chemoattractant is placed in the lower compartment and the cells are placed in the upper compartment. After incubation for a period at 37°C the cells move towards the chemoattractant, and the number of cells in the lower compartment is proportional to the chemoattractant activity (relative to a series of controls).
(§1) The method was performed essentially as previously described (Reckless & Grainger (1999) Biochem. J. 340:803-11).
First, the cell suspension to be placed in the upper compartment was prepared. The THP-1 cells were pelleted by centrifugation (770 x g; 4 mins) and washed with Geys Balanced Salt Solution with 1mg/ml BSA (GBSS + BSA). This wash was then repeated, and the cells re-pelleted before being resuspended in a small volume of GBSS + BSA for counting, for example using a standard haemocytometer.
The volume of GBSS + BSA was then adjusted depending on the number of cells present so that the cells were at final density of 4.45 x 10^6 cells per ml of GBSS + BSA. This ensured that there were 100,000 THP-1 cells in each 25µl of the solution to be placed in the upper chamber of the plate.
The suspension of THP-1 cells at 4.45 x 10^6 cells/ml was divided into three pots. To one pot the BSCI was added at an appropriate final concentration, in an appropriate vehicle (for example (S)- 3-(2',2'-dimethylpropanoylamino)-tetrahydropyridin-2-one was added at 1nM from a stock solution in GBSS). To the second pot, the BSCI was added at the same concentration as in the first pot, but additionally the sstr2 antagonist was also added (for example BIM 23454 [Tulipano et al. (2002) 143:1218-24] or BIM 23627 were added at 66nM final concentration from a stock solution in GBSS). To the third pot, GBSS + BSA plus vehicle as appropriate was added so that the volumes in three pots are equal, acting as a control.
Next, the chemoattractant solution to be placed in the lower compartment was prepared. […]. Note that, as recommended by Frow et al (Med. Res. Rev. 24:276-98) this is the concentration of MCP-1 which induces maximal migration in this system. This solution was divided into three pots, as for the cell suspension. To one pot, the BSCI was added to the same final concentration as was added to the cell suspension, in the second pot the BSCI and the sstr2 antagonist were both added at the same concentration as previously added to the cell suspension, while to the remaining pot GBSS + BSA plus vehicle as appropriate was added so that the volumes in the three pots were equal. Note that the volume of liquid that needs to be added to make the addition of the BSCI and the sstr2 antagonist compounds needs to be taken into account, when establishing the final concentration of MCP-1 in the solution for the lower compartment and the final concentration of cells in the upper compartment.
(§2) Once the chemoattractant solutions for the lower wells and cell solutions for the upper chambers were prepared, the migration chamber was assembled. 29 µl of the appropriate chemoattractant solution was placed into the lower well of the chamber. Assays were performed with at least triplicate determinations of each condition. Once all the lower chambers were filled, the porous membrane was applied to the chamber in accordance with the manufacturer's instructions. Finally, 25 µl of the appropriate cell solution was applied to each upper chamber. A plastic lid was placed over the entire apparatus to prevent evaporation.
The assembled chamber was incubated at 37 °C, 5% CO2, for 2 hours. A suspension of cells in GBSS + BSA was also incubated under identical conditions in a tube: these cells were used to construct a standard curve for determining the number of cells that migrated to the lower chamber under each condition. […]

[3] = tested on: rat peripheral blood leukocytes; test: Rat chemokine-induced PBMC migration assay; type: cell-based
[4] = tested on: Panc-2H4; test: Human Panc-2H4 insulin suppression assay; type: cell-based
Description: (§3) Two different assays for "classical" sstr2 functions were adopted: (1) cultured foetal rat pituitary cells secreted growth hormone which is inhibited by sstr2 agonists in a dose-dependent fashion and (2) selected glucose-sensitive sub-clones of the human Panc-1 cell line secrete insulin which is inhibited by sstr2 agonists in a dose-dependent fashion.
Glucose-sensitive sub-clones of the human Panc-1, a cell line derived from a pleiomorphic epithelioid carcinoma of the exocrine pancreas, were obtained essentially as described by Hamil et al. (2008) Biomed. Sci. Instrum. 44:441-6. Briefly, Panc-1 cells were subcultured in 24 well plates, and the medium was supplemented with an additional 5% glucose. […] The resulting sub-lines were then tested for glucose sensitivity by preparing wells of a 96-well plate (5 x 10^4 cells per well) which were then exposed to cultured medium containing a range of glucose concentrations (low glucose DMEM, DMEM, DMEM + 1% glucose, DMEM ± 2.5% glucose and DMEM + 5% glucose). After 24hrs incubation, the conditioned medium was collected and assayed for insulin secretion by ELISA (Linco; cat# EZHI-14K) in accordance with the manufacturer's instructions. […] Further 96 well plates were prepared using Panc-2H4 (5 x 10^4 cells per well) in DMEM. After 24hrs, the medium was switched to DMEM + 5% glucose containing various test agents at various concentrations (triplicate wells per condition). After a further 24hrs, the conditioned medium was harvested and the concentration of insulin was determined by ELISA as described above.
(§4) Results were reported as the mean ± SD, expressed as the fold change from cells in the presence of vehicle only.

[5] = tested on: fetal rat pituicytes; test: Rat pituicyte GH suppression assay; type: cell-based; conditions: for EC50: Table 3, read-out: Rat pituicyte GH suppression assay ED50
Description: as §3
Methods: Cultures of fetal rat pituicytes were established exactly as previously described (Murray et al. (2004) J. Clin. Endocrinol. Metab. 89:3027-32) by enzymatic dispersion. After 48hrs in low glucose DMEM plus 10% FCS, cells in 48 well plates (5 x 10^4 cells per well) were washed for 4hrs in serum-free DMEM and then incubated with test agents at various concentrations for a further 24hrs in serum-free DMEM. At the end of this period, the conditioned medium was harvested, any cell debris removed by centrifugation and assayed for GH using a commercially available ELISA (Linco; cat# EZRMGH-45K) in accordance with the manufacturer's instructions.
as §4

[6] = molecular target: type 2 somatostatin receptor (sstr2), human (human) (UniProt P30874); test: cell-based or functional assay
[7] = tested on: THP-1 cells; test: MCP-1 induced THP-1 cell migration (Transwell) assay; type: cell-based, human
Procedure: In principle, this assay consists of two chambers separated by a porous membrane. The chemoattractant is placed in the lower compartment and the cells are placed in the upper compartment.
as §1
First, the cell suspension to be placed in the upper compartment was prepared.
Next, the chemoattractant solution to be placed in the lower compartment was prepared. […] Note that, as recommended by Frow et al (Med. Res. Rev. 24:276-98) this is the concentration of MCP-1 which induces maximal migration in this system. This solution was divided into three pots, as for the cell suspension.
as §2, with “29 µl of the appropriate chemoattractant solution was placed into the lower well of the chamber.” left out, “Finally, 25 µl of the appropriate cell solution was applied to each upper chamber.” left out
This procedure caused any cells adhering to the underside of the membrane to fall into the lower chamber.
The number of cells migrated into the lower chamber under each condition can then be determined by a number of methods, including direct counting, labelling with fluorescent or radioactive markers or through the use of a vital dye. Typically, we utilised the vital dye MTT.

[8] = Table 4, 0.01nM to 1,000nM in DMSO vehicle, read-out: Chemokine-induced THP-1 cell migration assay ("BSCI" target) ED50
[9] = Table 4, 0.01nM to 1,000nM in DMSO vehicle, read-out: Panc-2H4 insulin suppression assay ("classical" target) ED50
[10] = Table 4, THP-1 migration ED50 versus insulin suppression ED50
[11] = Table 3, percentage suppression compared to vehicle

Sequence of sstr2 (P30874 whole entry): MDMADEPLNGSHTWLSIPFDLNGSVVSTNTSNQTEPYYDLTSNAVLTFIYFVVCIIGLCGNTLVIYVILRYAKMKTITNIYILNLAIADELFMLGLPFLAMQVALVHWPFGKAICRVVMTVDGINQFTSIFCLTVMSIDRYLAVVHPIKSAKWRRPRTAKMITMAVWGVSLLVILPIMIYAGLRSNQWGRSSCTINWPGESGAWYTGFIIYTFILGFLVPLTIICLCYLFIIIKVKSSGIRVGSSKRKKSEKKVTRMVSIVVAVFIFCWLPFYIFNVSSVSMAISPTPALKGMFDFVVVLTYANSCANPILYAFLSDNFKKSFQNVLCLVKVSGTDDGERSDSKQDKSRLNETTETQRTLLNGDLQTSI

Molecule: somatostatin-28 (from UniProt P61278 89-116) (peptide)
"Classical" : "BSCI" potency ratio, Human [6]: 6
ED50 for inhibition of MCP-1 induced THP-1 cell migration [6]: 0.9 nM
Human Panc-2H4 insulin suppression assay, ED50 [6]: 0.14 nM
Human chemokine-induced THP-1 migration assay, ED50 [6]: 0.9 nM

Molecule: NCC1CCCC(CNC(=O)C(Cc2ccccc2)NC(=O)N2CCC(n3c(=O)[nH]c4ccccc43)CC2)C1 (stereo not drawn) [F]
Chemokine-induced THP-1 cell migration assay ("BSCI" target) Max Effect (%) ([2]; Table 4): <10%
EC50 [2, 8]: > 1000 nM
Panc-2H4 insulin suppression assay ("classical" target) Max Effect (%) ([4]; Table 4): <10%
EC50 [4, 9]: > 1000 nM

Molecule: Cortistatin
ED50 for inhibition of chemokine-induced THP-1 cell migration [7]: ~75 nM
ED50 ([7]; Table 2, inhibition of MCP-1 induced THP-1 cell migration): 75 nM
Max effect ([7]; Table 2, maximum inhibition at the highest dose tested (1-10µM)): 40-60%
maximal inhibition of leukocyte migration ([7]; even at maximal / very high doses): ~50%

Molecule: CC1(C(=O)N[C@H]2CCCCNC2=O)CCCCC1 [(S)-3-(1'-methylcyclohexyl-1'-carbonylamino)-caprolactam]
competition with BN83250 binding to sstr2 (in words) [1]: also compete with BN83250 binding to sstr2 to a similar extent

Molecule: cortistatin (peptide)
ED50 for inhibition of MCP-1 induced THP-1 cell migration [6]: 75 nM

Now from value to molecule, other results behind:

EC50 ([2]; Homo sapiens, THP-1, Table 3, read-out: Human chemokine-induced THP-1 migration assay ED50): 0.08 nM
EC50 ([3]; Rattus norvegicus, Leukocyte, Table 3, read-out: Rat chemokine-induced PBMC migration assay ED50): 0.22 nM
EC50 ([5]; Rattus norvegicus): 270 nM
Molecule: O=C1NCCCC[C@@H]1NC(=O)C12CC3CC(CC(C3)C1)C2 [BN83470, (S)-3-(admantane-1'-carbonylamino)-caprolactam]
competition with BN83250 binding to sstr2 (in words) [1]: also compete with BN83250 binding to sstr2 to a similar extent
Emax ([2]; Homo sapiens, THP-1, Table 3, read-out: Human chemokine-induced THP-1 migration assay Max effect (%)): 100%
"Classical" : "BSCI" potency ratio Human [2]: <0.00008
Emax ([3]; Rattus norvegicus, Leukocyte, Table 3, read-out: Rat chemokine-induced PBMC migration assay Max effect (%)): 100%
"Classical" : "BSCI" potency ratio Rat ([3]; Table 3, rat PBMC migration ED50 versus rat pituicyte GH suppression ED50): 0.0008
Emax ([4]; Homo sapiens, Table 3, percentage suppression compared to vehicle, read-out: Human Panc-2H4 insulin suppression assay Max effect (%)): < 10%
Emax ([5]; Rattus norvegicus, Table 3, percentage suppression compared to vehicle, read-out: Rat pituicyte GH suppression assay Max effect (%)): 56%

EC50 [2, 8]: > 1000 nM
EC50 [4, 9]: > 1000 nM
Molecule: CC(=O)NC(=O)C(NC(=O)N1CCC(n2c(=O)[nH]c3ccccc32)CC1)C(C)c1c[nH]c2ccccc12 (stereo not drawn) [Compound E]
Chemokine-induced THP-1 cell migration assay ("BSCI" target) Max Effect (%) ([2]; Table 4): <10%
Panc-2H4 insulin suppression assay ("classical" target) Max Effect (%) ([4]; Table 4): <10%

EC50 [2, 8]: > 1000 nM
Molecule: CC(c1c[nH]c2ccccc12)C(NC(=O)N1CCC(NC(N)=O)CC1)C(=O)NCC1CCCC(CN)C1 (stereo not drawn) [Compound A]

EC50 [2, 8]: > 1000 nM
EC50 [4, 9]: 650 nM
Molecule: CC(=O)NC(CC(N)=O)C(=O)NC(C(=O)NCC1CCCC(CN)C1)C(C)c1c[nH]c2ccccc12 (mixture of isomers) [D]
Chemokine-induced THP-1 cell migration assay ("BSCI" target) Max Effect (%) ([2]; Table 4): <10%
Panc-2H4 insulin suppression assay ("classical" target) Max Effect (%) ([4]; Table 4): 37%

EC50 [2, 8]: 2 nM
EC50 [4, 9]: 82 nM
Molecule: CC(c1c[nH]c2ccccc12)C(NC(=O)NC1CCCNC1=O)C(=O)NCC1CCCC(CN)C1 (stereo not drawn) [Compound C]
Chemokine-induced THP-1 cell migration assay ("BSCI" target) Max Effect (%) ([2]; Table 4): 100%
RATIO [2, 10]: 0.02
Panc-2H4 insulin suppression assay ("classical" target) Max Effect (%) ([4]; Table 4): 56%

EC50 [2, 8]: 220 nM
EC50 [4, 9]: 167 nM
Molecule: CC(c1c[nH]c2ccccc12)C(NC(=O)N1CC(=O)NC(=O)C1)C(=O)NCC1CCCC(CN)C1 (stereo not drawn) [Compound B]
Chemokine-induced THP-1 cell migration assay ("BSCI" target) Max Effect (%) ([2]; Table 4): 100%
RATIO [2, 10]: 1.3
Panc-2H4 insulin suppression assay ("classical" target) Max Effect (%) ([4]; Table 4): 52%

EC50 ([2]; Table 3, read-out: Human chemokine-induced THP-1 migration assay ED50): 450 nM
EC50 [2, 8]: 450 nM
EC50 ([2]; Table 5, library screening hits, read-out: Chemokine-induced THP-1 cell migration assay ("BSCI" target) ED50): 450 nM
EC50 ([4]; Table 3, read-out: Human Panc-2H4 insulin suppression assay ED50): 17 nM
EC50 [4, 9]: 17 nM
EC50 ([4]; Table 5, library screening hits, read-out: Panc-2H4 insulin suppression assay ("classical" target) ED50): 17 nM
EC50 [5]: 2.9 nM
Molecule: C[C@@H](c1c[nH]c2ccccc12)[C@@H](NC(=O)N1CCC(n2c(=O)[nH]c3ccccc32)CC1)C(=O)NC[C@@H]1CCC[C@H](CN)C1 [L-779,976]
Human chemokine-induced THP-1 migration assay Max effect (%) ([2]; Table 3): 65%
"Classical" : "BSCI" potency ratio Human [2]: 27
Chemokine-induced THP-1 cell migration assay ("BSCI" target) Max Effect (%) ([2]; Table 4): 65%
RATIO [2, 10]: 26.5
Chemokine-induced THP-1 cell migration assay ("BSCI" target) Max Effect (%) ([2]; Table 5): 65%
RATIO ([2]; Table 5, THP-1 migration ED50 versus insulin suppression ED50): 26.5
Human Panc-2H4 insulin suppression assay Max effect (%) [4, 11]: 40%
Panc-2H4 insulin suppression assay ("classical" target) Max Effect (%) ([4]; Table 4): 40%
Panc-2H4 insulin suppression assay ("classical" target) Max Effect (%) ([4]; Table 5): 40%
Rat pituicyte GH suppression assay Max effect (%) [5, 11]: 55%
